According to US8389792B2, “Compositions and methods for the treatment and prevention of ulcerative colitis and colon cancer and screening methods to identify same” (Cornell University, priority 2007, dated 2013):
“Also recorded” adds a separate entry of the source.

Tests used:
[1] = tested on: T-bet−/−×RAG2−/− (TRUC) mice; assay: Histologic colitis scoring of colons from treated TRUC mice; format: in vivo, mouse; conditions: for TRUC colitis (histologic colitis scores, in vivo antibiotic sensitivity): TRUC mice treated four weeks with single antibiotic in drinking water
From the text: For studies of the progeny of antibiotic treated animals, progeny were weaned at 21 days and examined six weeks after weaning. These animals had no exposure to antibiotics after weaning.
Colons were removed from euthanized mice and dissected free from the anus to distal to the cecum. Colonic contents were removed and colons were cleaned with phosphate buffer saline or Hanks' balanced salt solution prior to fixation in 4% PFA or 10% neutral buffered formalin (NBF) followed by routine paraffin embedding. After paraffin embedding, […] sections were cut and stained with hematoxylin and eosin or as noted.
Sections were examined and the degree of colitis was blindly scored. Each of four histologic parameters were scored as absent (0), mild (1), moderate (2), or severe (3): mononuclear cell infiltraton, polymorphonuclear cell infiltration, epithelial hyperplasia, and epithelial injury, similar to previous studies (Neurath et al., 2002b). Colons from dextran sodium sulfate treated mice were scored using the following parameters scored on a scale of 0-4: percentage of colon involved by inflammation, percentage of crypt loss, presence of lymphoid follicles, edema, erosions, and density of inflammatory cells. The scores for the individual parameters were summed to give a total severity score. […]
Mice were treated as described previously (Fagarasan, S., et al. (2002). Science 298, 1424-1427; Rakoff-Nahoum, S., et al. (2004). Cell 118, 229-241). Alterations are as noted: in brief, animals were provided ampicillin (1 g/L; Roche), vancomycin (1 gm/L; Henry Schein, Inc. (Hospira, Inc.)), neomycin sulfate (1 g/L; Sigma (Teva Pharmaceuticals)), and metronidazole (1 g/L; Sigma) dissolved in their autoclaved drinking water and their fluid intake was monitored. […]
Mice were treated with the following antibiotics dissolved in their autoclaved drinking water as indicated: ampicillin (1 g/L; Roche), vancomycin (500 mg/L; Sigma), neomycin sulfate (1 g/L; Sigma), metronidazole (1 g/L; Sigma, solubilized with 15 ml of 0.1N acetic acid/L), and gentamicin (2 g/L; Cell Gro); and fluid intake monitored. […]

Klebsiella pneumoniae [2] = assay: Quantitative fecal culture of Gram-negative aerobes on MacConkey's medium; format: in vivo; conditions: for fecal levels of K. pneumoniae after antibiotic: 4-week old TRUC mice, feces cultured 1d before and 1d after antibiotic, limit of detection 4.4 log10 CFU/g
Experimental: (§1) Individual mice were placed in autoclaved plastic cages. Fecal pellets were transferred immediately upon expulsion into capped microfuge tubes. 4-6 pellets were collected per mouse per time point. All Rag2^−/− mice in FIG. 2F were sampled twice over a 3d period for each weekly time point. Pellets were resuspended in sterile PBS and 10-fold serial dilutions were generated, plated on MacConkey's medium, and incubated in ambient air at 37° C. overnight. Biochemical assays with the API-20E panel (bioMerieux) confirmed that colony morphology correlated with Klebsiella pneumoniae, Proteus mirabilis, or E. coli: therefore, these organisms were subsequently identified based on their colony morphotypes.
(§2) The lower limit of detection for these studies was 10^4.4 cfu/gram fecal dry weight. A minimum of 30 colonies or a maximum of 300 colonies was counted at a given dilution and the serial dilution had to appropriately reflect the colony counts for the quantitative counts to pass our quality control standards.
(§3) Mice were treated with the following antibiotics dissolved in their autoclaved drinking water as indicated: ampicillin (1 g/L; Roche), vancomycin (500 mg/L; Sigma), neomycin sulfate (1 g/L; Sigma), metronidazole (1 g/L; Sigma, solubilized with 15 ml of 0.1N acetic acid/L), and gentamicin (2 g/L; Cell Gro); and fluid intake monitored.
(§4) Dextran sulfate sodium (M.W. 40-50,000; USB Cat# 14489) was dissolved in drinking water at a final concentration of 4% (w/v) and provided for 7d.
(§5) anti-TNF-α (clone TN3-19.12), a hamster anti-mouse TNF-α neutralizing IgGl antibody and control Ab (hamster anti-GST IgGl) were purchased from Leinco Technologies. Mice were injected with these reagents (15 mg/kg) on a weekly basis for four weeks (Garrett et al., 2007).
(§6) Peripheral lymph nodes were harvested and cell suspensions were generated as previously described. Fluorescence activated cell sorted C114^+CD62L^h,CD25^+ cells were collected and resuspended in PBS. 75,000 cells were injected per mouse. An equivalent amount of PBS was injected in the control group. 10 mice were injected with T-regulatory cells and nine mice with PBS. All mice were 4 weeks of age at the time of injection (Garrett et al., 2007). This experiment was stopped when the mice were 12 weeks old (as opposed to 14 weeks of age in the TNF-a blockade experiment), because two mice in the control group became quite moribund from their colitis, and euthanasia was indicated as per our animal protocol.

Proteus mirabilis [3] = assay: as above; format: in vivo; conditions: for fecal levels of P. mirabilis after antibiotic: 4-week old TRUC mice, feces cultured 1d before and 1d after antibiotic, limit of detection 4.4 log10 CFU/g
Experimental: as §1, §2, §3, §4, §5, §6

Klebsiella pneumoniae [4] = assay: TNF-α bacterial co-culture (growth kinetics); format: cell-based; conditions: in vitro mono-culture, 6 h, colony counts at 2 h intervals
Experimental: (§7) TNF-a (final concentration 100u,g/mL culture medium), or PBS alone, was added to cultures of the designated microbes and bacterial concentrations (efu/ml) were followed during a 6 h incubation (37° C. with agitation in ambient air) at 2 h intervals. Bacteria were cultured in Luria Broth and plated on MacConkey's medium.

Proteus mirabilis [5] = assay: TNF-α bacterial co-culture (growth kinetics); format: cell-based; conditions: in vitro mono-culture, 6 h, colony counts at 2 h intervals
Experimental: as §7

[6] = 8 week-old WT and Rag2−/− mice, 4% in drinking water one week, samples before and 1d after

How did the “TRUC colitis (histologic scores)” value ([1]; six week old TRUC mice, antibiotics 1 g/L each in drinking water for six weeks) turn out when `Cc1ncc([N+](=O)[O-])n1CCO` [metronidazole] was run?
The value was “cured the colitis”.

What about the “fecal levels of K. pneumoniae after antibiotic” value (Klebsiella pneumoniae [2]) of the same compound?
The value was “below our limit of detection”.

What about the “fecal levels of P. mirabilis after antibiotic” value (Proteus mirabilis [3]) of the same compound?
Its value is “below our limit of detection”.

For `CN[C@H](CC(C)C)C(=O)N[C@H]1C(=O)N[C@@H](CC(N)=O)C(=O)N[C@H]2C(=O)N[C@H]3C(=O)N[C@H](C(=O)N[C@H](C(=O)O)c4cc(O)cc(O)c4-c4cc3ccc4O)[C@H](O)c3ccc(c(Cl)c3)Oc3cc2cc(c3O[C@@H]2O[C@H](CO)[C@@H](O)[C@H](O)[C@H]2O[C@H]2C[C@](C)(N)[C@H](O)[C@H](C)O2)Oc2ccc(cc2Cl)[C@H]1O` [vancomycin], which “TRUC colitis (histologic colitis scores, in vivo antibiotic sensitivity)” value [1] is on record?
Its value is “does not; also recorded: neither abolished colitis”.

Which results are given for Dextran sulfate sodium?
culturable K. pneumoniae in fecal microbiota after dextran sulfate sodium (Klebsiella pneumoniae [2]; [6]): did not detect; culturable P. mirabilis in fecal microbiota after dextran sulfate sodium (Proteus mirabilis [3]; [6]): did not detect

With TNF-a as the compound, how does the “growth kinetics of K. pneumoniae in vitro” value (Klebsiella pneumoniae [4]) read?
The value was “did not affect the growth kinetics”.

And the “growth kinetics of P. mirabilis in vitro” value (Proteus mirabilis [5])?
Its value is “did not affect the growth kinetics”.

How did the “TRUC colitis (histologic colitis scores, in vivo antibiotic sensitivity)” value [1] turn out when gentamicin was run?
The value was “able to ameliorate and cure TRUC”.

And the “fecal levels of K. pneumoniae after antibiotic” value (Klebsiella pneumoniae [2])?
The value was “below our limit of detection”.

And the “fecal levels of P. mirabilis after antibiotic” value (Proteus mirabilis [3])?
The value was “below our limit of detection”.
